Data set [1] has as its system Trypanosoma cruzi. The experiment in a line: Antitrypanosomal activity against Trypanosoma cruzi Y trypomastigote form after 24 hrs by Trypan blue exclusion method. The data set is classed as functional, organism-based.
Data set [2] concerns Trypanosoma cruzi. The experiment in a line: Antitrypanosomal activity against Trypanosoma cruzi Y epimastigote form after 11 days by Trypan blue exclusion method. As to conditions: 264 h. It counts as functional, organism-based.
A short description of data set [3]: Cytotoxicity against BALB/c mouse splenocytes after 24 hrs by [3H]thymidine incorporation assay. The data set is classed as cell-based. As to conditions: splenocyte.

Some results are limits rather than exact numbers.

For the compound `CCC1SC(N/N=C\CSc2ccccc2)=NC1=O` (stereo unspecified), the IC50 with Trypanosoma cruzi [1] turned out to be 48.2 µM; with Trypanosoma cruzi [2], 0.3 µM. The Activity in data set [3] was > 100 µg/mL.
The matching figures for `Cc1ccc(SC/C=N\NC2=NC(=O)CS2)cc1`: 20 µM, 92.3 µM and > 100 µg/mL.
In the data set on Trypanosoma cruzi [2], `O=C(Cn1ccnc1[N+](=O)[O-])NCc1ccccc1` [BENZNIDAZOLE] came in with an IC50 of 6.6 µM. For the same compound, the Activity in data set [3] was 25 µg/mL.
`O=C1CSC(N/N=C\CCSc2ccccc2)=N1`: the IC50 was 10 µM in the data set on Trypanosoma cruzi [1] and 2.9 µM in the data set on Trypanosoma cruzi [2]. Also, the Activity in data set [3] was > 100 µg/mL.
For the compound `O=C1CSC(N/N=C\CSc2ccccc2)=N1`, the figures for the half-maximal inhibitory concentration (IC50) in the data set on Trypanosoma cruzi [1] and in the data set on Trypanosoma cruzi [2] were 7.8 µM and 35 µM, respectively. Moreover, the Activity in data set [3] is > 100 µg/mL.
For `O=C1CSC(N/N=C\CSc2ccc(Cl)cc2)=N1`, the half-inhibitory concentration (IC50) is 82.4 µM with Trypanosoma cruzi [1] and 43.9 µM in the data set on Trypanosoma cruzi [2]. Further, the Activity in data set [3] was > 100 µg/mL.
The compound `O=C1CSC(N/N=C\CSc2ccc(Br)cc2)=N1` showed an IC50 in the data set on Trypanosoma cruzi [2] of 42.9 µM. Also, the Activity in data set [3] was > 100 µg/mL.
As to `Cc1ccc(SC/C=N\NC2=NC(=O)C(C)S2)cc1` (stereo unspecified), the values for the half-maximal inhibitory concentration (IC50) with Trypanosoma cruzi [1] and in the data set with Trypanosoma cruzi [2] were 84.8 µM and 63.4 µM, respectively. The Activity in data set [3] was > 100 µg/mL.
`CC1CS(=O)(=O)CCN1/N=C/c1ccc([N+](=O)[O-])o1` (stereo unspecified) [NIFURTIMOX] came in with a concentration for half-maximal inhibition (IC50) with Trypanosoma cruzi [2] of 1.9 µM. Also, the Activity in data set [3] amounted to 1 µg/mL.
As for `C/C(CSc1ccccc1)=N/NC1=NC(=O)C(C)S1` (stereo unspecified), in the data set on Trypanosoma cruzi [2], the half-inhibitory concentration (IC50) was determined as 83.3 µM. For the same compound, the Activity in data set [3] is > 100 µg/mL.

For orientation: IC50 means the concentration at which inhibition is half-maximal. Read a high IC50 as weaker potency.

For the origin of these results see ChEMBL document CHEMBL1155255, “Ruthenium complexes endowed with potent anti-Trypanosoma cruzi activity: Synthesis, biological characterization and structure-activity relationships” (Bioorg Med Chem, 2009).
